According to article PMC6382835, “A critical evaluation of TRPA1-mediated locomotor behavior in zebrafish as a screening tool for novel anti-nociceptive drug discovery” (Scientific Reports, 2019):

Tests used:
mouse TRPA1 (mTRPA1) = target: T1, mouse TRPA1 (mTRPA1) (Mus musculus, UniProt Q8BLA8); test: FLIPR calcium signaling assay in mTRPA1-transfected HEK293 cells; format: cell-based; conditions: Schild plot against ASP7663-induced calcium influx, mTRPA1
T1 construct: host or cells: HEK293 (ATCC CRL-1573), transient transfection
Experimental: HEK293 cells (#CRL-1573, ATCC, VA, USA) were cultured in DMEM media (#11995-065, Sigma-Aldrich, MO, USA) with 10% Fetal Bovine Serum (#F0926-500ML, Thermo Fisher, MA, USA). The cells were maintained in a 37 °C incubator with consistent 5% CO2. They were seeded in a clear 6 well flat bottom cell culture plates (#07-200-83, Corning ®, Thermo Fisher) with 500,000 cells/2 ml/well for transfection, in serum-free Opti-MEM (#31985070, Gibco®, Thermo Fisher). These cells were transfected with pcDNA3.1-mTRPA1 (#MR227099, OriGene, MD, USA), pcDNA3.1-zTRPA1a, or pcDNA3.1-zTRPA1b (a gift from Dr. David Prober) using X-tremeGENE^TM 9 (#6365809001, Sigma-Aldrich). After 24 hours, the transfected cells were dislodged with trypsin, resuspended in Opti-MEM, and seeded 25,000 cells/25 µl/well in 384-well black polystyrene microplates (#82051-296, VWR, PA, USA) for testing calcium signaling the following day. Experiments were carried out with the approval of the Institutional Biohazard Committee (#13-013-16).
Twenty-five µl calcium sensitive Fluorescent Imaging Plate Reader (FLIPR) Calcium 6 assay dye (#R8190, Molecular Devices, CA, USA) was added to each well of a 384-well plate containing HEK293 cells transiently expressing mTRPA1, zTRPA1a, and zTRPA1b, respectively. The cells were incubated for an hour prior to the recording of intracellular calcium levels in a FlexStation3 Multi-Mode Microplate Reader (#R8190, Molecular Devices) as previously described. All compounds were diluted in calcium buffer made with 1x HBSS (#14025-092, Thermo Fisher), 20 mM HEPES (#15630-080, Thermo Fisher), and 2.5 mM Probenecid (#P8761, Sigma-Aldrich). For agonist studies, ASP7663 (#5178, Tocris, Bristol, UK) was diluted in 1% DMSO-containing calcium buffer at desired concentrations and was added during the recording. The TRPA1 antagonists HC-030031 (#2896, Tocris), TCS-5861528 (#3938, Tocris), and A-967079 (#4716, Tocris) were diluted in calcium buffer, and 5 µl of 10x solutions were added 10 minutes prior to the recording. The same amount of DMSO (1%) was added to all control groups to maintain similar DMSO levels with the experimental groups. During the assay, the cells were challenged by a 5x ASP7663 solution or 1% DMSO solution at the 20 seconds time point, and both solutions were diluted in calcium buffer. Relative fluorescence units (RFU) were measured for 120 seconds period by the Flexstation. Area under the curve (AUC) was further evaluated from individual calcium influx data (Supplemental Figs 2 and 4) to plot does-response curve of antagonists. For each specific antagonist concentration we plotted Log(dose ratio-1) against the antagonist concentration in a Schild plot. The dose ratio (A’/A) equals the EC50 of the agonist ([…]) in the presence of a concentration of the antagonist (A’) divided by the EC50 of the agonist in the absence of antagonist (A). The x-intercept of the Schild plot was used to identify the antagonist-receptor affinity (pA2).
All data are presented as means ± standard error of the mean (SEM). For our in vitro statistical analysis, AUC of calcium influx (RFU) was measured to plot dose-response curves, which were further analyzed by nonlinear regression analysis. Mean RFU of the first 10 seconds was used as a baseline of the AUC. EC50 values of the dose-response curves were further used to plot Schild curves, and the curves were analyzed with linear regression analysis. For the mice von Frey test, mechanical thresholds were analyzed with two-way ANOVA followed by a Bonferonni test for multiple comparison analysis. For the zebrafish behavior test, the data from the first five seconds following drug administration were excluded, as zebrafish displacement during that period was highly influenced by liquid dispensing. AUC of all curves were measured and analyzed by one-way ANOVA. The post-hoc analysis was conducted with the Tukey’s or Dunnett’s multiple comparisons unless it stated otherwise. […]

rat TRPA1 = tested on: rat TRPA1; design: method as in PMID 21402443; conditions: cited from earlier work

T1 sequence (Q8BLA8 whole entry): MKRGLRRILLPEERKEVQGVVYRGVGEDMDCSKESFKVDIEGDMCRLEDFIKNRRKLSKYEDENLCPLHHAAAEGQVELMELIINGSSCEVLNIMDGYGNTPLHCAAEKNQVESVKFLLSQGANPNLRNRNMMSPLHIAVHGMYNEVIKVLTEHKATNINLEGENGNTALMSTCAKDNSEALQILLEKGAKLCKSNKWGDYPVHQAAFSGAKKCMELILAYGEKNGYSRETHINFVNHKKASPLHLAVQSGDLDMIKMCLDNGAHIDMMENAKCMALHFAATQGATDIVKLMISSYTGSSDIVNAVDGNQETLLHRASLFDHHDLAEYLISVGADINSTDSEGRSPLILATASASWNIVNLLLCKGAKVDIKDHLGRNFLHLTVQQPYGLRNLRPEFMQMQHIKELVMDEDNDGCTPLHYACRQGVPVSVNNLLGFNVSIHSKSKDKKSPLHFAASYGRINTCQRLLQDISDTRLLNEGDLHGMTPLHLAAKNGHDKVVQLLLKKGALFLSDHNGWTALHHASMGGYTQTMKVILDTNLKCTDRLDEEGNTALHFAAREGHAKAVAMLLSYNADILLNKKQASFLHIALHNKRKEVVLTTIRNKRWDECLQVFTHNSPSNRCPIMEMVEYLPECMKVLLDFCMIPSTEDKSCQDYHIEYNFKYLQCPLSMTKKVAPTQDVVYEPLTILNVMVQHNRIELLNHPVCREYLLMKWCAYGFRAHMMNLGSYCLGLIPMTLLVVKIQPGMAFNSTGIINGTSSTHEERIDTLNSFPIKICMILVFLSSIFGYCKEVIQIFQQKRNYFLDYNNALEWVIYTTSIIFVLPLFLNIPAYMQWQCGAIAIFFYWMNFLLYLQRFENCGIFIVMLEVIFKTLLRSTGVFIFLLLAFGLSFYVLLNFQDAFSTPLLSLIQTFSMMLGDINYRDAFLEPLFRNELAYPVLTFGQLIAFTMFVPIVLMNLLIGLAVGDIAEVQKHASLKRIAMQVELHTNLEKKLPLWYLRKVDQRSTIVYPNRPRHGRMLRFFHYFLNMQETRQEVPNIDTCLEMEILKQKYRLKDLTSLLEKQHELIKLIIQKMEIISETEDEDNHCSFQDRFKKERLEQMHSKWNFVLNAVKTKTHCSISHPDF

Row | SMILES | pA2 (mouse TRPA1 (mTRPA1)) | pA2 expressed in µM (mouse TRPA1 (mTRPA1)) [µM] | IC50 (rat TRPA1) [nM] | fold stronger than HC-030031 (rat TRPA1)
1 | CCC(C)c1ccc(NC(=O)Cn2cnc3c2c(=O)n(C)c(=O)n3C)cc1 (stereo not drawn) [TCS-5861528] | 5.34 ± 0.2 | 4.6 |  | 
2 | CCC(=N\O)/C(C)=C/c1ccc(F)cc1 [A-967076] | 7.0 ± 0.3 | 0.09 | 289 | about 25 fold
